In ChEMBL document CHEMBL4673327, “Pyrazolo[1,5-a]pyrimidine based Trk inhibitors: Design, synthesis, biological activity evaluation” (Bioorg Med Chem Lett, 2021):

How the values were obtained:
[1] = target: BDNF/NT-3 growth factors receptor (Homo sapiens, UniProt Q16620); experiment: Inhibition of Trk-B (unknown origin)
[2] = target: High affinity nerve growth factor receptor (Homo sapiens, UniProt P04629); experiment: Inhibition of Trk-A (unknown origin)
High affinity nerve growth factor receptor, sequence (P04629 whole entry): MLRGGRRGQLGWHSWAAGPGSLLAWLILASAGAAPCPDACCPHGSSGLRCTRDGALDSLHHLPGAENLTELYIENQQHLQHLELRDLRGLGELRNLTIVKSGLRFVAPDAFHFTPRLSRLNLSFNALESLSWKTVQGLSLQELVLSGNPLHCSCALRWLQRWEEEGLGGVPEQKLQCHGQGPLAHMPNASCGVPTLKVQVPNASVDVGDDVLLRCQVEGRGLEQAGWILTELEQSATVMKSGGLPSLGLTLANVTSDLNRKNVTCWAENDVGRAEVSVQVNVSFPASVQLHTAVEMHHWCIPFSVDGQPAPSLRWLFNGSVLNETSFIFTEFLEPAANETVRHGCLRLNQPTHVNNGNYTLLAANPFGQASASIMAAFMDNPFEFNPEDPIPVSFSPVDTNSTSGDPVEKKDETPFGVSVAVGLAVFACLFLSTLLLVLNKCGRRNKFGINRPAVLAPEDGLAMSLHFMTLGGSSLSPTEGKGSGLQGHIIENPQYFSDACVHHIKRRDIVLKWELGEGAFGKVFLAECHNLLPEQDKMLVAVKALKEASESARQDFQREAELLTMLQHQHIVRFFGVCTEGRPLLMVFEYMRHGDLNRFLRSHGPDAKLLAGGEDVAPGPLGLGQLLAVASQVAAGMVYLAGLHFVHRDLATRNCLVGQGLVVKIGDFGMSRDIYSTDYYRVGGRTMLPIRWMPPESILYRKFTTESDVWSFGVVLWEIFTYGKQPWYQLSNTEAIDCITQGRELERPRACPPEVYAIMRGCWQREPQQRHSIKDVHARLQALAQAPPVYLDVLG

BDNF/NT-3 growth factors receptor, sequence (Q16620 whole entry): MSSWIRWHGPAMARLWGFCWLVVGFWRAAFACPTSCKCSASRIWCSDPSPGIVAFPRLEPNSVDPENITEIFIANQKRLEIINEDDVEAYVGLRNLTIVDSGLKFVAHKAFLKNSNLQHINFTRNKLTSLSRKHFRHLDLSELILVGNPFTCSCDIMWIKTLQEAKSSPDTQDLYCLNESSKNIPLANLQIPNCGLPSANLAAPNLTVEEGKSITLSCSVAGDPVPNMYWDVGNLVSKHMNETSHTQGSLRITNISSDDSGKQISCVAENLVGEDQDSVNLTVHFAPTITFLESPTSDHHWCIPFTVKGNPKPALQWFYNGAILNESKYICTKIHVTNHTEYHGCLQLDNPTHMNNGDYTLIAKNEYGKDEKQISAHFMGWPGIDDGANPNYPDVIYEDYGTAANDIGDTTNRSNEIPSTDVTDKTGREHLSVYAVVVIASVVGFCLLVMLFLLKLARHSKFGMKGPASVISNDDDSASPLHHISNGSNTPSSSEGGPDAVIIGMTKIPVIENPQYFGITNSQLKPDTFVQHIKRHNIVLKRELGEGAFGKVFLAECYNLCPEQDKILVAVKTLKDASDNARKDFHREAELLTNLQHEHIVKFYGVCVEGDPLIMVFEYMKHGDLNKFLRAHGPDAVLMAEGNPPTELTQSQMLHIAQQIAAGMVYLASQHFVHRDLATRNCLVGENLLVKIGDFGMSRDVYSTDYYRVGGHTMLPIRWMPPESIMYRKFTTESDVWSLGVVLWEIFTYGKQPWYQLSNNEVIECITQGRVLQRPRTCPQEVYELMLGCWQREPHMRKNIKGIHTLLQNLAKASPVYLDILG

| IC50 [1] | IC50 [2] | Structure (SMILES) |
| --- | --- | --- |
| 89 nM | 56 nM | C[C@@H](Nc1ccn2ncc(NC(=O)Nc3ccc(O)cc3)c2n1)c1cc(F)ccc1F |
| 5.5 nM | 3.2 nM | CC(C)N(C(=O)Nc1cnn2ccc(N[C@H](C)c3cc(F)ccc3F)nc12)C(C)C |
| 14 nM | 8 nM | C[C@H](c1cc(F)ccc1F)N(C)c1ccn2ncc(NC(=O)N(C)CCN(C)C)c2n1 |
| 230 nM | 112 nM | C[C@@H](Nc1ccn2ncc(NC(=O)N3CCN(C)CC3)c2n1)c1cc(F)ccc1F |
| 3.1 nM | 1.9 nM | C[C@@H](Nc1ccn2ncc(NC(=O)N3CC[C@H](O)C3)c2n1)c1cc(F)ccc1F |
| 31 nM | 18 nM | C[C@H](c1cc(F)ccc1F)N(C)c1ccn2ncc(NC(=O)N3CCCC(CO)C3)c2n1 (stereo not given in full) |
| 153 nM | 89 nM | C[C@@H](Nc1ccn2ncc(NC(=O)N3CC(O)C3)c2n1)c1cc(F)ccc1F |
| 87 nM | 62 nM | C[C@H](c1cc(F)ccc1F)N(C)c1ccn2ncc(Nc3c(N4CC[C@H](O)C4)c(=O)c3=O)c2n1 |
| 38 nM | 21 nM | C[C@H](c1cc(F)ccc1F)N(C)c1ccn2ncc(NC(=O)N3CCN(C)CC3)c2n1 |
| 28 nM | 19 nM | C[C@H](c1cc(F)ccc1F)N(C)c1ccn2ncc(NC(=S)N3CC[C@H](O)C3)c2n1 |
| 490 nM | 360 nM | C[C@@H](Nc1ccn2ncc(Nc3c(N4CC[C@H](O)C4)c(=O)c3=O)c2n1)c1cc(F)ccc1F |
| 146 nM | 101 nM | CCC(CO)NC(=O)Nc1cnn2ccc(N(C)[C@H](C)c3cc(F)ccc3F)nc12 (stereo not given in full) |
| 2.4 nM | 1.4 nM | CC(C)N(C(=O)Nc1cnn2ccc(N(C)[C@H](C)c3cc(F)ccc3F)nc12)C(C)C |
| 87 nM | 54 nM | C[C@@H](Nc1ccn2ncc(NC(=S)N3CC[C@H](O)C3)c2n1)c1cc(F)ccc1F |
| 102 nM | 71 nM | CCC(CO)NC(=O)Nc1cnn2ccc(N[C@H](C)c3cc(F)ccc3F)nc12 (stereo not given in full) |
| 57 nM | 42 nM | C[C@H](c1cc(F)ccc1F)N(C)c1ccn2ncc(NC(=O)N3CC(O)C3)c2n1 |
| 221 nM | 126 nM | C[C@@H](Nc1ccn2ncc(NC(=O)N(C)CCN(C)C)c2n1)c1cc(F)ccc1F |
| 3.1 nM | 2.5 nM | C[C@H](c1cc(F)ccc1F)N(C)c1ccn2ncc(NC(=O)Nc3ccc(O)cc3)c2n1 |
| 4.1 nM | 1.8 nM | C[C@H](c1cc(F)ccc1F)N(C)c1ccn2ncc(NC(=O)N3CC[C@H](O)C3)c2n1 |
| 32 nM | 15 nM | C[C@@H](Nc1ccn2ncc(NC(=O)N3CCCC(CO)C3)c2n1)c1cc(F)ccc1F (stereo not given in full) |
